Reference: ChEMBL document CHEMBL5506035, “Discovery of Glutamate Carboxypeptidase III Ligands to Compete the Uptake of [177Lu]Lu-PSMA-617 in Healthy Organs” (J Med Chem, 2024)
pKd: −log10 of the molar value. Activity calls are given as the source filed them. The rule behind the calls is not given here.

How the values were obtained:
[1] = target: T1, Glutamate carboxypeptidase 2 (Homo sapiens, UniProt Q04609); assay: Displacement of [177Lu]LU-PSMA-617 from PSMA in human salivary gland assessed as residual activity at 10 uM incubated for 1 hr by autoradiography analysis relative to control; format: tissue-based
Target sequence in this assay (Q04609 whole entry, looked up): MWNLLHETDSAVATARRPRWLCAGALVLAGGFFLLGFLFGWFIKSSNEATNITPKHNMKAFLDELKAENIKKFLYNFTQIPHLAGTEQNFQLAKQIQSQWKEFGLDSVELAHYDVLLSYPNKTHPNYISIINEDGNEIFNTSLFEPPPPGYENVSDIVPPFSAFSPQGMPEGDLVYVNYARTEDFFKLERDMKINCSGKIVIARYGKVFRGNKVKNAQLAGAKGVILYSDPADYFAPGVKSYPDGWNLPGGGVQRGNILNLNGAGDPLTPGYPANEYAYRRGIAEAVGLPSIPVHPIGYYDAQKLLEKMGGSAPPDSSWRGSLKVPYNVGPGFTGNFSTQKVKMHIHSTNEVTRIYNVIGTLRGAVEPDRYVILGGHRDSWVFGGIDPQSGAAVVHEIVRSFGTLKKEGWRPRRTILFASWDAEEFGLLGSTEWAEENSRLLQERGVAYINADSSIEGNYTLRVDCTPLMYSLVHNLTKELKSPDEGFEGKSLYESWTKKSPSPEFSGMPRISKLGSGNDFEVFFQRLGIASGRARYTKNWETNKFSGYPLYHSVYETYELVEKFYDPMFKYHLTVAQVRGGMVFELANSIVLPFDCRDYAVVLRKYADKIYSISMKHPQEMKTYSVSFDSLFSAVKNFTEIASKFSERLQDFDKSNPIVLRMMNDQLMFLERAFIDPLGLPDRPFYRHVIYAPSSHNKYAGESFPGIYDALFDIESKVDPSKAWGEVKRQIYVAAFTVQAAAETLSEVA

[2] = target: T1, Glutamate carboxypeptidase 2; assay: Displacement of [177Lu]LU-PSMA-617 from human recombinant PSMA assessed as dissociation constant by fluorescence polarization assay
Target sequence in this assay (Q04609 whole entry): as the sequence (Q04609 whole entry, looked up) above

[3] = target: T2, N-acetylated-alpha-linked acidic dipeptidase 2 (Homo sapiens, UniProt Q9Y3Q0); assay: Displacement of [177Lu]LU-PSMA-617 from human recombinant GCPIII assessed as dissociation constant by fluorescence polarization assay
Target sequence in this assay (Q9Y3Q0 whole entry): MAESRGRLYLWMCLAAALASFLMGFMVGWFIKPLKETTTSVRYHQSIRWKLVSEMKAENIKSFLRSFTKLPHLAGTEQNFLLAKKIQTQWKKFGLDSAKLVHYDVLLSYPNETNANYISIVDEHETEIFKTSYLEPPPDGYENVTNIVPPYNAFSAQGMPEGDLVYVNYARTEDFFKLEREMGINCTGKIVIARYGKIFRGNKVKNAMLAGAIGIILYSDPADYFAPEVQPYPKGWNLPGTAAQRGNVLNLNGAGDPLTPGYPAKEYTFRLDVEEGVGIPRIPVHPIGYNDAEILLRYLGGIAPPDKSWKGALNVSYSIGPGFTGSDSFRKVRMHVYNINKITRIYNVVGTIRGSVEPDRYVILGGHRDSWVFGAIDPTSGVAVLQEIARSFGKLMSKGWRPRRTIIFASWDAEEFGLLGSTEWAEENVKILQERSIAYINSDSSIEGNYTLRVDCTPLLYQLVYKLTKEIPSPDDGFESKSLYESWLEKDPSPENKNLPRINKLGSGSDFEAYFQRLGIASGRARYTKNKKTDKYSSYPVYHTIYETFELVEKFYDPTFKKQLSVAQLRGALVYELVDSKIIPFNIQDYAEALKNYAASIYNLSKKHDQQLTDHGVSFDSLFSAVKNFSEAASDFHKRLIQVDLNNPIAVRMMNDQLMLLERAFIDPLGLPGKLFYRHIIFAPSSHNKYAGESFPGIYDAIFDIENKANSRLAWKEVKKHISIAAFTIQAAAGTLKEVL

[4] = target: T2, N-acetylated-alpha-linked acidic dipeptidase 2; assay: Binding affinity to human recombinant GCPIII assessed as dissociation constant by fluorescence polarization assay
Target sequence in this assay (Q9Y3Q0 whole entry): as above

[5] = target: T1, Glutamate carboxypeptidase 2; assay: Binding affinity to human recombinant PSMA assessed as dissociation constant by fluorescence polarization assay
Target sequence in this assay (Q04609 whole entry): as the sequence (Q04609 whole entry, looked up) above

Homo sapiens = species: Homo sapiens; assay: Ratio of Kd for binding affinity to human recombinant GCPIII assessed as dissociation constant by fluorescence polarization assay to Kd for binding affinity to human recombinant PSMA assessed as dissociation constant by fluorescence polarization assay
[6] = target: T1, Glutamate carboxypeptidase 2; assay: Displacement of [177Lu]LU-PSMA-617 from human PSMA at 10 to 100 uM incubated for 15 mins by manual size-exclusion chromatography analysis; conditions: dose 10-100 µM
Target sequence in this assay (Q04609 whole entry, looked up): as above

[7] = target: T2, N-acetylated-alpha-linked acidic dipeptidase 2; assay: Displacement of [177Lu]LU-PSMA-617 from human […] at 10 to 100 uM incubated for 15 mins by manual size-exclusion chromatography analysis; conditions: dose 10-100 µM
Target sequence in this assay (Q9Y3Q0 whole entry, looked up): as the sequence (Q9Y3Q0 whole entry) above

[8] = target: T1, Glutamate carboxypeptidase 2; assay: Displacement of [177Lu]LU-PSMA-617 from PSMA in human HT-1080 cells by autoradiography analysis; format: cell-based; conditions: dose 0.6-50 µM
Target sequence in this assay (Q04609 whole entry, looked up): as the sequence (Q04609 whole entry, looked up) above

Structure (SMILES)	pKd [2]	pKd [3]	pKd [4]	pKd [5]	also measured
CCCCCCNC(=S)Nc1ccc2c(c1)C(=O)OC21c2ccc(O)cc2Oc2cc(O)ccc21	–	–	–	–	Activity [1]: 92%
O=C(NCCCCNC(=O)NCCCC[C@H](NC(=O)[C@@H]1C[C@@H](NC(=O)c2c[nH]nn2)CN1C(=O)c1cnoc1C1CC1)C(=O)O)NCCCC[C@H](NC(=O)[C@@H]1C[C@@H](NC(=O)c2c[nH]nn2)CN1C(=O)c1cnoc1C1CC1)C(=O)O	4.89	7.28	–	–	–
O=C(NCCCC[C@H](NC(=O)[C@@H]1C[C@@H](NC(=O)c2c[nH]nn2)CN1C(=O)c1cnoc1C1CC1)C(=O)O)c1c[nH]nn1	< 4.70	7.92	–	–	–
O=C(NCCCC[C@H](NC(=O)[C@@H]1C[C@@H](NC(=O)c2c[nH]nn2)CN1C(=O)c1c[nH]nn1)C(=O)Nc1c[nH]nn1)c1c[nH]nn1	< 4.70	6.47	–	–	–
COC(=O)[C@H](CCCCNC(=S)Nc1ccc2c(c1)C(=O)OC21c2ccc(O)cc2Oc2cc(O)ccc21)NC(=O)[C@@H]1C[C@@H](NC(=O)c2c[nH]nn2)CN1C(=O)c1cnoc1C1CC1	–	–	7.92	6.48	–
CC(=O)NCCCC[C@H](NC(=O)[C@@H]1C[C@@H](NC(=O)c2c[nH]nn2)CN1C(=O)c1cnoc1C1CC1)C(=O)O	< 4.70	7.39	–	–	–
O=C(CCOCCOCCOCCOCCOCCOCCOCCOCCOCCOCCC(=O)NCCCC[C@H](NC(=O)[C@@H]1C[C@@H](NC(=O)c2cnn[nH]2)CN1C(=O)c1cnoc1C1CC1)C(=O)O)NCCCC[C@H](NC(=O)[C@@H]1C[C@@H](NC(=O)c2cnn[nH]2)CN1C(=O)c1cnoc1C1CC1)C(=O)O	< 4.70	6.30	–	–	–
CC(=O)NC[C@H](NC(=O)[C@@H]1C[C@@H](NC(=O)c2c[nH]nn2)CN1C(=O)c1c[nH]nn1)C(=O)O	< 4.70	7.17	–	–	–
O=C(N[C@@H]1C[C@@H](C(=O)NCCCCCCNC(=S)Nc2ccc3c(c2)C(=O)OC32c3ccc(O)cc3Oc3cc(O)ccc32)N(C(=O)c2cnoc2C2CC2)C1)c1c[nH]nn1	–	–	8.15	7.32	–
N=c1ccc2c(-c3ccc(C(=O)NCCCC[C@H](NC(=O)[C@@H]4C[C@@H](NC(=O)c5c[nH]nn5)CN4C(=O)c4cnoc4C4CC4)C(=O)O)cc3C(=O)O)c3ccc(N)c(S(=O)(=O)O)c3oc-2c1S(=O)(=O)O	–	–	8.35	< 6.00	–
O=C(NC[C@H](NC(=O)[C@@H]1C[C@@H](NC(=O)c2c[nH]nn2)CN1C(=O)c1cnoc1C1CC1)C(=O)O)c1c[nH]nn1	5.89	8.10	–	–	–
Cn1nncc1C(=O)N[C@@H]1C[C@@H](C(=O)N[C@@H](CCCCNC(=S)Nc2ccc3c(c2)C(=O)OC32c3ccc(O)cc3Oc3cc(O)ccc32)C(=O)O)N(C(=O)c2cnoc2C2CC2)C1	–	–	< 6.30	–	–
CC(=O)NC[C@H](NC(=O)[C@@H]1C[C@@H](NC(=O)c2c[nH]nn2)CN1C(=O)c1cnoc1C1CC1)C(=O)O	< 4.70	5.70	–	–	–
O=C(Cn1ccnn1)N[C@@H]1C[C@@H](C(=O)N[C@@H](CCCCNC(=S)Nc2ccc3c(c2)C(=O)OC32c3ccc(O)cc3Oc3cc(O)ccc32)C(=O)O)N(C(=O)c2cnoc2C2CC2)C1	–	–	< 6.30	–	–
O=C1OC2(c3ccc(O)cc3Oc3cc(O)ccc32)c2ccc(NC(=S)NCCCC[C@H](NC(=O)[C@@H]3C[C@@H](Cc4c[nH]nn4)CN3C(=O)c3cnoc3C3CC3)C(=O)O)cc21	–	–	6.97	< 6.00	–
O=C(N[C@@H](CCCCNC(=S)Nc1ccc2c(c1)C(=O)OC21c2ccc(O)cc2Oc2cc(O)ccc21)C(=O)O)c1c[nH]nn1	–	–	7.06	–	Ratio (Homo sapiens): 20
O=C(N[C@@H]1C[C@@H](C(=O)N[C@@H](CCCCNC(=S)Nc2ccc3c(c2)C(=O)OC32c3ccc(O)cc3Oc3cc(O)ccc32)C(=O)O)N(C(=O)c2cnoc2C2CC2)C1)c1nc[nH]n1	–	–	< 6.52	–	–
O=C(O)CC[C@H](NC(=O)N[C@@H](CCCCNC(=O)[C@H](Cc1ccc2ccccc2c1)NC(=O)[C@H]1CC[C@H](CNC(=O)CN2CCN(CC(=O)O)CCN(CC(=O)O)CCN(CC(=O)O)CC2)CC1)C(=O)O)C(=O)O	–	–	–	–	Activity [6]: inactive
COc1ccc(C2=[N+]3C(=Cc4c(C)c(CCC(=O)NCCCC[C@H](NC(=O)[C@@H]5C[C@@H](NC(=O)c6c[nH]nn6)CN5C(=O)c5cnoc5C5CC5)C(=O)O)c(C)n4[B-]3(F)F)C=C2)cc1	–	–	7.82	< 6.00	–
O=C(NC[C@H](NC(=O)[C@@H]1C[C@@H](NC(=O)c2c[nH]nn2)CN1C(=O)c1c[nH]nn1)C(=O)O)c1c[nH]nn1	6.64	8.82	–	–	–
CC(=O)N1C[C@H](NC(=O)c2c[nH]nn2)C[C@H]1C(=O)N[C@@H](CCCCNC(=S)Nc1ccc2c(c1)C(=O)OC21c2ccc(O)cc2Oc2cc(O)ccc21)C(=O)O	–	–	6.77	< 6.00	–

Structure (SMILES)	pKd [2]	pKd [3]	pKd [4]	pKd [5]	also measured
O=C(N[C@@H]1C[C@@H](C(=O)NCCOCCOCCNC(=S)Nc2ccc3c(c2)C(=O)OC32c3ccc(O)cc3Oc3cc(O)ccc32)N(C(=O)c2cnoc2C2CC2)C1)c1c[nH]nn1	–	–	7.62	6.51	–
NC[C@H](NC(=O)[C@@H]1C[C@@H](NC(=O)c2c[nH]nn2)CN1C(=O)c1c[nH]nn1)C(=O)O	< 4.70	5.00	–	–	–
O=C(N[C@@H]1C[C@@H](C(=O)N[C@H](CCCCNC(=S)Nc2ccc3c(c2)C(=O)OC32c3ccc(O)cc3Oc3cc(O)ccc32)C(=O)O)N(C(=O)c2cnoc2C2CC2)C1)c1c[nH]nn1	–	–	7.64	< 6.00	–
CC(=O)N[C@@H]1C[C@@H](C(=O)N[C@@H](CCCCNC(=S)Nc2ccc3c(c2)C(=O)OC32c3ccc(O)cc3Oc3cc(O)ccc32)C(=O)O)N(C(=O)c2cnoc2C2CC2)C1	–	–	< 5.59	–	–
CC(C)c1nocc1C(=O)N1C[C@H](NC(=O)c2c[nH]nn2)C[C@H]1C(=O)N[C@@H](CCCCNC(=S)Nc1ccc2c(c1)C(=O)OC21c2ccc(O)cc2Oc2cc(O)ccc21)C(=O)O	–	–	7.52	< 6.00	–
NCCCC[C@H](NC(=O)[C@@H]1C[C@@H](NC(=O)c2c[nH]nn2)CN1C(=O)c1cnoc1C1CC1)C(=O)O	< 4.70	4.89	–	–	–
O=C(N[C@@H]1C[C@@H](C(=O)N[C@@H](CNC(=S)Nc2ccc3c(c2)C(=O)OC32c3ccc(O)cc3Oc3cc(O)ccc32)C(=O)O)N(C(=O)c2cnoc2C2CC2)C1)c1c[nH]nn1	–	–	8.20	< 6.00	Activity [1]: 44%
O=C(N[C@@H]1C[C@@H](C(=O)N[C@@H](CCCCNC(=S)Nc2ccc3c(c2)C(=O)OC32c3ccc(O)cc3Oc3cc(O)ccc32)C(=O)O)N(C(=O)c2c[nH]nn2)C1)c1c[nH]nn1	–	–	8.32	< 6.00	–
Cc1[nH]nnc1C(=O)N[C@@H]1C[C@@H](C(=O)N[C@@H](CCCCNC(=S)Nc2ccc3c(c2)C(=O)OC32c3ccc(O)cc3Oc3cc(O)ccc32)C(=O)O)N(C(=O)c2cnoc2C2CC2)C1	–	–	< 6.30	–	–
O=C(N[C@@H]1C[C@@H](C(=O)N[C@@H](CNC(=S)Nc2ccc3c(c2)C(=O)OC32c3ccc(O)cc3Oc3cc(O)ccc32)C(=O)O)N(C(=O)c2c[nH]nn2)C1)c1c[nH]nn1	–	–	8.77	< 6.00	Activity [1]: 14%; Activity [7]: Active; Activity [8]: Dose-Dependent Effect
O=C(N[C@@H]1C[C@@H](C(=O)N[C@@H](CCCCNC(=S)Nc2ccc3c(c2)C(=O)OC32c3ccc(O)cc3Oc3cc(O)ccc32)C(=O)O)N(C(=O)c2cnoc2C2CC2)C1)c1c[nH]cn1	–	–	< 6.52	–	–
O=C(N[C@@H]1C[C@@H](C(=O)O)N(C(=O)c2cnoc2C2CC2)C1)c1c[nH]nn1	< 4.70	6.52	–	–	–
CC(=O)NCCCC[C@H](NC(=O)[C@@H]1C[C@@H](NC(=O)c2c[nH]nn2)CN1C(=O)c1cnoc1C1CC1)C(=O)Nc1c[nH]nn1	< 4.70	5.49	–	–	–
CC(=O)NCCCC[C@H](NC(=O)[C@@H]1C[C@@H](NC(=O)c2c[nH]nn2)CN1C(=O)c1c[nH]nn1)C(=O)O	4.82	5.19	–	–	–
O=C(N[C@@H]1C[C@@H](C(=O)N[C@@H](CCCCNC(=S)Nc2ccc3c(c2)C(=O)OC32c3ccc(O)cc3Oc3cc(O)ccc32)C(=O)O)N(C(=O)c2cnoc2-c2ccccc2)C1)c1c[nH]nn1	–	–	8.19	7.64	–
O=C1OC2(c3ccc(O)cc3Oc3cc(O)ccc32)c2ccc(NC(=S)NCCCC[C@H](NC(=O)[C@@H]3C[C@@H](n4cc(-c5c[nH]nn5)nn4)CN3C(=O)c3cnoc3C3CC3)C(=O)O)cc21	–	–	< 6.52	–	–
CC(C)c1oncc1C(=O)N1C[C@H](NC(=O)c2c[nH]nn2)C[C@H]1C(=O)N[C@@H](CCCCNC(=S)Nc1ccc2c(c1)C(=O)OC21c2ccc(O)cc2Oc2cc(O)ccc21)C(=O)O	–	–	8.37	6.75	–
NCCCC[C@H](NC(=O)[C@@H]1C[C@@H](NC(=O)c2c[nH]nn2)CN1C(=O)c1c[nH]nn1)C(=O)O	< 4.70	4.77	–	–	–
O=C(NCCCC[C@H](NC(=O)[C@@H]1C[C@@H](NC(=O)c2c[nH]nn2)CN1C(=O)c1c[nH]nn1)C(=O)O)c1c[nH]nn1	< 4.70	7.92	–	–	–
Cn1cc(C(=O)N[C@@H]2C[C@@H](C(=O)N[C@@H](CCCCNC(=S)Nc3ccc4c(c3)C(=O)OC43c4ccc(O)cc4Oc4cc(O)ccc43)C(=O)O)N(C(=O)c3cnoc3C3CC3)C2)nn1	–	–	< 6.30	–	–
